# In BindingDB's records for doi:10.1021/ml500238q (University of Bonn, 2014):
# pKi: −log10 of the molar value.
# Molecular target: Cathepsin K (Homo sapiens) (UniProt P43235)
# Test: Inhibition of human cathepsin K using Z-Leu-Arg-AMC fluorogenic substrate incubated for 60 mins
row,pKi,SMILES
1,11.84,CC(C)(C)OC(=O)NN(C#N)CC(=O)N(Cc1ccccc1)Cc1ccccc1
2,11.38,CN(Cc1ccccc1)C(=O)CN(C#N)NC(=O)OC(C)(C)C
3,7.51,CN(C(=O)OC(C)(C)C)N(C#N)CC(=O)N1CCOCC1
4,10.96,CC(C)(C)OC(=O)NN(C#N)CC(=O)N1CCOCC1
